Results reported in ChEMBL document CHEMBL1124966, “Cholecystokinin-A receptor ligands based on the kappa-opioid agonist tifluadom” (J Med Chem, 1990).

Key:
Opioid receptor = Opioid receptor (Rattus norvegicus, UniProt P33533+P34975+P33535); test: Displacement of [3H]dihydromorphine (DHM) from rat brain Opioid receptors
[1] = target: T1, Cholecystokinin receptor type A (Rattus norvegicus, UniProt P30551); test: Inhibition of binding of [125I]CCK-8 to Cholecystokinin type A receptor in rat pancreas
T1 sequence (P30551 whole entry): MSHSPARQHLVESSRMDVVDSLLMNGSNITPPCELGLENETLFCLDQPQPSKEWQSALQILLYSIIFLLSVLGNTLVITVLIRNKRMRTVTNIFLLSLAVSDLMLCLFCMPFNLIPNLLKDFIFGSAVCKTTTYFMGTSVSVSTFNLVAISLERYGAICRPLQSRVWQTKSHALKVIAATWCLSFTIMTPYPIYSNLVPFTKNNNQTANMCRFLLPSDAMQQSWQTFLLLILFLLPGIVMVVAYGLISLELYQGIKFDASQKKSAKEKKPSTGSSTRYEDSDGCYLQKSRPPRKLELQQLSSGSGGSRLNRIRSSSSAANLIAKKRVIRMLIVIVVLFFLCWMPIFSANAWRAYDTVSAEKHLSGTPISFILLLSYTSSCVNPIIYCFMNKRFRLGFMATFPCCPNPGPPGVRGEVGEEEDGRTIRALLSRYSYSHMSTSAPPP

`CC(=O)NCSCC(=O)NCC1CN=C(c2ccccc2F)c2ccccc2N1C` (centres undefined) was tested, and the IC50 (Opioid receptor) was 0.12 µM.

`CN1c2ccccc2C(c2ccccc2F)=NCC1CNC(=O)c1cc2ccccc2[nH]1` (centres undefined) showed an IC50 (Opioid receptor) of 0.0003 µM.

With `CN1c2ccccc2C(c2ccccc2F)=NCC1CNC(=O)Cc1c[nH]c2ccccc12` (centres undefined) the IC50 (Opioid receptor) was 0.022 µM.

`O=C(NCC1CNc2ccccc2C(c2ccccc2F)=N1)c1cc2ccccc2[nH]1` (centres undefined) gave an IC50 [1] of 4 µM.

Molecule `CCN(CC)c1ccc(NCC2CN=C(c3ccccc3F)c3ccccc3N2C)cc1C(F)(F)F` (centres undefined) has an IC50 [1] of 100 µM.

With `CN1c2ccccc2C(c2ccccc2F)=NCC1CNC(=O)Cc1cccc2sccc12` (centres undefined) the IC50 (Opioid receptor) was 0.003 µM.

Molecule `O=C(NCC1CNc2ccccc2C(c2ccccc2F)=N1)OCc1ccccc1` (centres undefined) has an IC50 [1] of 28 µM.

`NCC1N=C(c2ccccc2F)c2ccccc2NC1=O` (centres undefined) was tested, and the IC50 [1] was greater than 100 µM.

In the case of `O=C(NCC1CNc2ccccc2C(c2ccccc2F)=N1)c1ccsc1` (centres undefined), the IC50 [1] is reported as 10 µM.

`CN1c2ccccc2C(c2ccccc2F)NCC1CNC(=O)c1ccsc1` (centres undefined) gave an IC50 (Opioid receptor) of 0.03 µM.

In the case of `O=C(NCC1N=C(c2ccccc2F)c2ccccc2NC1=O)c1cc2ccccc2[nH]1` (centres undefined), the IC50 [1] is reported as 7 µM.

In the case of `CN1c2ccccc2C(c2ccccc2F)=NCC1CNC(=O)c1ccsc1` (racemic) [TIFLUADOM], the IC50 [1] is reported as 0.047 µM.

Work on `CN1c2ccccc2C(c2ccccc2F)=NCC1CNC(=O)c1cccnc1` (centres undefined) yielded an IC50 (Opioid receptor) of 0.45 µM.

`Cc1ccc(C(=O)NC[C@H]2CN=C(c3ccc(F)cc3)c3ccc(C)cc3N2C)cc1` was tested, and the IC50 [1] was 0.26 µM.

In the case of `O=C(NCC1CNc2ccccc2C(c2ccccc2F)=N1)C(O)c1ccccc1` (single isomer, unassigned; form 1), the IC50 [1] is reported as 8 µM.

Work on `O=C(NCC1N=C(c2ccccc2F)c2ccccc2NC1=O)OCc1ccccc1` (centres undefined) yielded an IC50 [1] of 22 µM and an IC50 (Opioid receptor) of 12 µM.

For `CCN(CC)CNCC1CN=C(c2ccccc2F)c2ccccc2N1C` (centres undefined), the IC50 [1] was greater than 100 µM.

`COC(=O)CC(NCC1CN=C(c2ccccc2F)c2ccccc2N1C)c1ccccc1` (centres undefined) showed an IC50 [1] of 0.018 µM and an IC50 (Opioid receptor) of 0.018 µM.

Work on `O=C(NCC1N=C(c2ccccc2F)c2ccccc2NC1=O)c1ccsc1` (centres undefined) yielded an IC50 [1] of 22 µM.

Molecule `O=C(NCC1CNc2ccccc2C(c2ccccc2F)=N1)C(O)c1ccccc1` (single isomer, unassigned; form 2) has an IC50 [1] greater than 100 µM.

`O=C1Nc2ccccc2C(c2ccccc2F)=NC1CNc1cnc(Cl)cn1` (centres undefined) showed an IC50 [1] of 15 µM.

`CN1c2ccccc2C(c2ccccc2F)=NCC1CNC(=O)c1ccc(Cl)cc1` (centres undefined) was tested, and the IC50 (Opioid receptor) was 0.0005 µM.

For `CN1c2ccccc2C(c2ccccc2F)=NCC1CNC(=O)C(O)c1ccccc1` (centres undefined), the IC50 [1] was 0.6 µM and the IC50 (Opioid receptor) was 0.007 µM.

Work on `CN1c2ccccc2C(c2ccccc2F)=NCC1CNC(=O)C(N)Cc1c[nH]c2ccccc12` (centres undefined) yielded an IC50 (Opioid receptor) of 0.04 µM.

With `O=C1Nc2ccccc2C(c2ccccc2F)=NC1CNCC1N=C(c2ccccc2F)c2ccccc2NC1=O` (centres undefined) the IC50 [1] was 14 µM.

For `Cc1ccc(C(=O)NC[C@@H]2CN=C(c3ccc(F)cc3)c3ccc(C)cc3N2C)cc1`, the IC50 [1] was 0.029 µM.
